Data as given in publication PMC7496931, “Activation of Sirtuin 2 Inhibitors Employing Photoswitchable Geometry and Aqueous Solubility” (Chemmedchem, 2020).

Key:
[1] = UV/Vis spectra and half-life of thermal Z→E isomerization; type: physicochemical; set-up: k of thermal Z→E isomerization (non-linear regression): unit not given here; conditions: for λΔ/max absorption maximum at thermal equilibrium: 50 μM in DMSO/assay buffer; for k of thermal Z→E isomerization (non-linear regression): 50 μM
Description: (§1) Photochemistry: All photoisomerization experiments were conducted under ruby light of 630 nm and total exclusion of daylight. Illumination was executed using a Bio‐Link 254 Crosslinker from Vilber‐Lourmat equipped with six Vilber‐Lourmat T8‐L lamps (8 W, 365 nm). Visible light radiation of 630 nm (ruby) and 452 nm (blue) was derived from a Paulmann FlexLED 3D strip. All compounds were irradiated in solution using spectrophotometric grade solvents. Photoisomerization and UV/Vis‐spectra measurement was conducted in quartz glass cuvettes (114‐QS, Hellma Analytics) at room temperature.
UV/Vis Spectra and Half-Life of Thermal Isomerization
The half-life of the thermal Z→E isomerization after 5 minutes of 365 nm irradiation was determined by UV/Vis-spectroscopy. Therefore, solutions of the respective compounds (50 µM) in 5%, 50% or 90% DMSO in enzyme assay buffer (v/v) were prepared. An initial spectrum of the thermal equilibrium was recorded. After 5 minutes of irradiation with 365 nm the increase of absorbance at the thermal equilibrium maximum (λ∆max) was recorded as exemplified by compound 15c (Figure S3). Absorbance at λ = λ ∆max was plotted as a function of time. Non-linear regression yielded the half-life of the thermal Z→E isomerization (Table S1). For extrapolation of the reaction kinetics, the plateau value was set to the initial absorbance at λ=λ∆max. The following equation was used for non-linear regression:
y = (y0 − Plateau)e−kx + Plateau
Figure S3: Left: UV-Vis spectrum of 15c (50 µM) in assay buffer (5% DMSO, v/v) at the thermal equilibrium (∆) and the photostationary state (PSS) after UV irradiation (365 nm). Right:
Absorbance of 15c (50 µm) in assay buffer (5% DMSO, v/v) at λ∆max = 328 nm after 5 minutes of UV (365 nm) irradiation.
(1 picture or pasted object on this page, not shown here)

[2] = Photoisomer distribution (PSD) by HPLC-ELSD; type: physicochemical; conditions: for E/Z [%] PSD @ 365 nm / PSD after 365 nm radiation, share of the Z isomer: after 365 nm irradiation; for E/Z [%] PSD @ 365 nm / E/Z [%] PSD @ 452 nm: HPLC in MeOH/water, ELSD; for E/Z [%] PSD @ 452 nm: after 452 nm irradiation
Description: as §1

[3] = Reductive stability in the presence of glutathione (HPLC); type: physicochemical; conditions: GSH 5 mM, 24 h, ambient temperature, HPLC analysis
Description: Reductive stability of 15 c, 15 f and 20 a in the presence of the cellular reductant glutathione (5 mM) was confirmed by HPLC analysis (Figure S5, Table S2). For the cell‐based activity assay, we illuminated the compounds solved in DMSO with UV light (365 nm) prior to incubation with the cells. […] As expected, 15 c and 15 f increased the levels of acetylated lysines H3K18 and H3K56, which are both affirmed substrates of Sirt2. In addition, we found H4K8 hyperacetylation even though this site is usually not affected by sirtuin catalysed deacetylation, indicating a further mode of action. […] In Figure 6, we show the relative results, whereby the acetylation product was related to total target protein and to the vehicle control. Again, we found an increase in acetylated histones induced by 15 c and 15 f which proves activity of these two compounds in living cells.
Glutathione (GSH) is able to reduce certain azobenzenes yielding the respective hydrazines.
Therefore, we determined the reductive stability of 15c, 15f and 20a prior to examination of the biological activity in a cell-based assay. […]
Table S2: Relative percentages (%) of GSH and the respective photoisomers extracted from the HPLC analysis. Samples were analyzed right after addition of GSH (0 h) and after 24 h of incubation at ambient temperature. […]
Fluorescence-Based Activity Assay (ZMAL-Assay)
The influence of the synthesized compounds on the deacetylase activity of the class I sirtuins Sirt1–3 was determined in a homogenous fluorescence-based enzyme assay, using the artificial substrate Z-(Ac)Lys-AMC (ZMAL). […]
The latter is subsequently cleaved by tryptic digestion, releasing 7-amino-4-methylcoumarin (AMC), excitation of which leads to a fluorescent read out (λex=390 nm; λem=460 nm). […]
contribute to the fluorescence signal. Therefore, the fluorescence intensity is proportional to the activity of the respective sirtuin.
After subtraction of the blank fluorescence signal (without enzyme) from the signal of the respective probe, the residual signal intensity is related to a 100 % conversion control (AMC),

[4] = 50 % DMSO (v/v) in assay buffer
[5] = 90 % DMSO (v/v) in assay buffer

SMILES | melting point | λΔ/max absorption maximum at thermal equilibrium ([1]; 5 % DMSO (v/v)) [nm] | k of thermal Z→E isomerization (non-linear regression) ([1]; 5 % DMSO (v/v) in assay buffer) | E/Z [%] PSD @ 365 nm [2] | E/Z [%] PSD @ 452 nm [2] | λΔ/max absorption maximum at thermal equilibrium ([1]; 50 % DMSO (v/v)) [nm] | k of thermal Z→E isomerization (non-linear regression) [1, 4] | λΔ/max absorption maximum at thermal equilibrium ([1]; 90 % DMSO (v/v)) [nm] | k of thermal Z→E isomerization (non-linear regression) [1, 5] | PSD after 365 nm radiation, share of the Z isomer [2] | Reductive stability in the presence of glutathione [3]
NC(=O)c1cncc(/N=N/c2c(O)ccc3ccccc23)c1 [7 c] | 260 °C |  |  |  |  |  |  |  |  |  | 
Cc1cc(/N=N/c2cncc(C(N)=O)c2)cc(C)c1N [7 f] | 255 °C |  |  |  |  |  |  |  |  |  | 
CC(=O)Nc1c(C)cc(/N=N/c2cncc(C(N)=O)c2)cc1C [9 a] |  | 329 | 0.1176 |  |  |  |  |  |  |  | 
CCCC(=O)Nc1c(C)cc(/N=N/c2cncc(C(N)=O)c2)cc1C [9 b] |  | 332 | 0.08608 | 10/90 | 86/14 |  |  |  |  |  | 
Cc1cc(/N=N/c2cncc(C(N)=O)c2)cc(C)c1NC(=O)c1ccccc1 [9 h] | 267 °C (dec.) |  |  | 14/86 | 91/9 | 337 | 0.9524 |  |  |  | 
Cc1cc(/N=N/c2cncc(C(N)=O)c2)cc(C)c1NC(=O)c1ccc(F)cc1 [9 i] |  |  |  | 12/88 | 91/9 | 337 | 1.193 |  |  |  | 
Cc1cc(/N=N/c2cncc(C(N)=O)c2)cc(C)c1NC(=O)c1ccc(-c2cccs2)cc1 [9 j] | 306.5 °C (dec.) |  |  | 29/71 | 93/7 | 330 | 1.212 |  |  |  | 
Cc1cc(/N=N/c2cncc(C(N)=O)c2)cc(C)c1NC(=O)C12CC3CC(CC(C3)C1)C2 [9 k] |  |  |  | 14/86 | 89/11 | 339 | 0.1022 |  |  |  | 
CC(C)(O)C#Cc1ccc(/N=N/c2cncc(C(N)=O)c2)cc1 [15 h] | 223.3 °C |  |  | 23/77 | 92/8 | 350 | 0.00906 |  |  |  | 
NC(=O)c1cncc(OCc2cccc(/N=N/c3ccc(OCc4ccccc4)cc3)c2)c1 [20 a] |  |  |  | 4/96 | 80/20 | 352 | 0.0207 |  |  |  | confirmed
NC(=O)c1cncc(OCc2cccc(/N=N/c3ccc(F)cc3)c2)c1 [20 b] | 202.1 °C |  |  | 2/98 | 83/17 | 324 |  |  |  |  | 
C#Cc1ccc(/N=N/c2cccc(COc3cncc(C(N)=O)c3)c2)cc1 [20 c] |  |  |  |  |  | 340 |  |  |  |  | 

The remaining lines, values ahead:

melting point | λΔ/max absorption maximum at thermal equilibrium ([1]; 5 % DMSO (v/v)) [nm] | k of thermal Z→E isomerization (non-linear regression) ([1]; 5 % DMSO (v/v) in assay buffer) | E/Z [%] PSD @ 365 nm [2] | E/Z [%] PSD @ 452 nm [2] | λΔ/max absorption maximum at thermal equilibrium ([1]; 50 % DMSO (v/v)) [nm] | k of thermal Z→E isomerization (non-linear regression) [1, 4] | λΔ/max absorption maximum at thermal equilibrium ([1]; 90 % DMSO (v/v)) [nm] | k of thermal Z→E isomerization (non-linear regression) [1, 5] | PSD after 365 nm radiation, share of the Z isomer [2] | Reductive stability in the presence of glutathione [3] | SMILES
 |  |  | 9/91 | 87/13 | 339 | 0.043 |  |  |  |  | CCCCCC(=O)Nc1c(C)cc(/N=N/c2cncc(C(N)=O)c2)cc1C [9 c]
 |  |  | 9/91 | 88/12 |  |  | 345 | 0.03293 |  |  | CCCCCCCC(=O)Nc1c(C)cc(/N=N/c2cncc(C(N)=O)c2)cc1C [9 d]
 |  |  | 10/90 | 90/10 |  |  | 344 | 0.03173 |  |  | CCCCCCCCCC(=O)Nc1c(C)cc(/N=N/c2cncc(C(N)=O)c2)cc1C [9 e]
 |  |  | 10/90 | 91/9 |  |  | 346 | 0.03286 |  |  | CCCCCCCCCCCC(=O)Nc1c(C)cc(/N=N/c2cncc(C(N)=O)c2)cc1C [9 f]
254.1 °C |  |  | 14/86 | 87/13 |  |  | 345 | 0.02709 |  |  | CCCCCCCCCCCCCC(=O)Nc1c(C)cc(/N=N/c2cncc(C(N)=O)c2)cc1C [9 g]
 |  |  | 31/69 | 94/6 | 325 | 0.003905 |  |  | 60–70% |  | CC(C)(C)OC(=O)c1ccc(/N=N/c2cncc(C(N)=O)c2)cc1 [15 a]
 |  |  | 6/94 | 90/10 | 332 | 0.02959 |  |  |  |  | CC(C)(C)OC(=O)Cc1ccc(/N=N/c2cncc(C(N)=O)c2)cc1 [15 b]
212.1 °C (dec.) | 329 | 0.002173 | 11/89 | 86/14 |  |  |  |  |  | confirmed | CC(C)(C)OC(=O)NCc1ccc(/N=N/c2cncc(C(N)=O)c2)cc1 [15 c]
 | 332 | 0.003156 | 9/91 | 91/9 |  |  |  |  |  |  | NC(=O)c1cncc(/N=N/c2ccc(Br)cc2)c1 [15 d]
 |  |  | 40/60 | 89/11 | 326 | 0.002728 |  |  | 60–70% |  | CCCCNC(=O)c1ccc(/N=N/c2cncc(C(N)=O)c2)cc1 [15 e]
259.5 °C |  |  | 5/95 | 79/21 |  |  | 333 | 0.006796 |  | confirmed | CCCCCCCCCC(=O)NCc1ccc(/N=N/c2cncc(C(N)=O)c2)cc1 [15 f]
 |  |  | 25/75 | 89/11 | 355 | 0.0139 |  |  |  |  | NC(=O)c1cncc(/N=N/c2ccc(C#CCCCCO)cc2)c1 [15 g]
